Values of other authors in patent US20090191608A1, “Pancreatic Islet Cell Preparation and Transplantation” (Baylor Research Institute, priority 2008, published 2009).

Experiments:
[1] = in vivo

Row | Half-life [1] | Time to reach a new steady-state level after the change of dose [1] [weeks] | Compound | Incidence of heparin-induced thrombocytopenia (in vivo) [%] | Occurrence of mouth ulcers (most common side effect)
1 |  |  | Enoxaparin [Lovenox] | 0.2 | 
2 | approximately 3 days | 2 | CO[C@H]1C[C@@H]2CC[C@@H](C)[C@@](O)(O2)C(=O)C(=O)N2CCCC[C@H]2C(=O)O[C@H]([C@H](C)C[C@@H]2CC[C@@H](O)[C@H](OC)C2)CC(=O)[C@H](C)/C=C(\C)[C@@H](O)[C@@H](OC)C(=O)[C@H](C)C[C@H](C)/C=C/C=C/C=C/1C [Sirolimus] |  | up to 85%
